Results on 1 compound are retold here after patent publication US4309559A, “Sulphonamides useful as pesticides” (FBC Limited, priority 1977, dated 1982).

Format in all cases: in vivo
Assay [1] relates to Peas (Pisum sativum). The assay is described as follows: Post-emergence foliar spray, herbicidal/growth regulant response, peas. Particulars: Lathyrus oleraceus, 168 h, foliar spray 11.2 kg/ha, 7 days, 0=no effect, 100=complete kill, read-out: herbicidal or growth regulant response index. In a few lines:
(§1)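 Foliar spray, 14-day-old seedlings; 11.2 kg/ha in 450 L/ha, 1:1 aq. acetone. Controlled room 22° C., 65-85% RH, 14 h light (13,000 lux). Visual score vs untreated control at 7 d, 0–100 (100 = complete kill).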

Assay [2] concerns Sugarbeet (Beta vulgaris). The assay is described as follows: Post-emergence foliar spray, herbicidal/growth regulant response, sugarbeet. The note with it: 168 h, foliar spray 11.2 kg/ha, 7 days, 0=no effect, 100=complete kill, read-out: herbicidal or growth regulant response index. In a few lines: as §1
Assay [3] deals with Oat (Avena sativa). As to the kind of experiment: Post-emergence foliar spray, herbicidal/growth regulant response, oat. The note with it: 168 h, foliar spray 11.2 kg/ha, 7 days, 0=no effect, 100=complete kill, read-out: herbicidal or growth regulant response index. The essentials: as §1
Assay [4] relates to French beans (Phaseolus vulgaris). The assay is described as follows: Post-emergence foliar spray, herbicidal/growth regulant response, French beans. Particulars: foliar spray 11.2 kg/ha, 7 days, 0=no effect, 100=complete kill. As for the experimental part:
Seeds of the plant species listed below were sown in anodised aluminium pans, 19 cm long×9.5 cm wide×5 cm deep, containing John Innes I potting compost. They were then watered and placed in a controlled environment room (22° C.; 65-85% relative humidity; 14 hours per day artificial illumination at 13,000 lux). Fourteen days after sowing, the seedlings received a foliar spray of a compound listed below, formulated as a solution in 1:1 by volume aqueous acetone. The concentration of active ingredient and volume of application were adjusted so as to be equivalent to a rate of 11.2 kg/ha in 450 liters per hectare. After seven days growth in the controlled environment room, the plants were visually assessed for any herbicidal or growth regulant response. All differences from the untreated control were scored according to an index where 0=no effect and 100=complete kill.
The product of Example 95 was tested according to the procedure of Examples 49-55.

The subject of assay [5] is Peas (Pisum sativum). The assay is described as follows: Soil incorporation (attaclay/sand dust), growth regulatory or herbicidal effects, peas. The note with it: Lathyrus oleraceus, 504 h, soil incorporation 26 ppm, 21 days, 0=no effect, 100=complete kill, read-out: growth regulatory or herbicidal effect score. In a few lines: (§2)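 Dust-formulated compound incorporated in potting compost, 26 or 130 ppm w/v; seeds sown, watered, 21 d at 22° C, 65-85% RH, 14 h/day 13,000 lux. Visual growth-regulatory/herbicidal score 0 (no effect) to 100 (complete kill) vs untreated.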

The subject of assay [6] is Linseed (Linum usitatissimum). As to the kind of experiment: Soil incorporation (attaclay/sand dust), growth regulatory or herbicidal effects, linseed. The note with it: 504 h, soil incorporation 26 ppm, 21 days, 0=no effect, 100=complete kill, read-out: growth regulatory or herbicidal effect score. The essentials:
as §2

Assay [7] relates to Maize (Zea mays). As to the kind of experiment: Soil incorporation (attaclay/sand dust), growth regulatory or herbicidal effects, maize. The note with it: 504 h, soil incorporation 26 ppm, 21 days, 0=no effect, 100=complete kill, read-out: growth regulatory or herbicidal effect score. The essentials: as §2
Assay [8] deals with Oats (Avena sativa). The assay is described as follows: Soil incorporation (attaclay/sand dust), growth regulatory or herbicidal effects, oats. Particulars: 504 h, soil incorporation 26 ppm, 21 days, 0=no effect, 100=complete kill, read-out: growth regulatory or herbicidal effect score. In a few lines: as §2
Assay [9] deals with Ryegrass (Lolium perenne). The assay is described as follows: Soil incorporation (attaclay/sand dust), growth regulatory or herbicidal effects, ryegrass. Particulars: 504 h, soil incorporation 26 ppm, 21 days, 0=no effect, 100=complete kill, read-out: growth regulatory or herbicidal effect score. The essentials: as §2
The subject of assay [10] is Wheat (Triticum aestivum). The assay is described as follows: Pre-emergence soil surface spray, wheat. Particulars: soil surface spray 2.8 kg/ha, 21 days, 0=no effect, 100=complete kill. The essentials:
(§3)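 Compounds are applied to the compost surface right after sowing, at 2.8 kg active ingredient per hectare. After 21 days in a controlled environment room at 22° C., any difference from untreated plants is rated visually from 0 (no effect) to 100 (complete kill).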

The subject of assay [11] is Barley (Hordeum vulgare). As to the kind of experiment: Pre-emergence soil surface spray, barley. The note with it: soil surface spray 2.8 kg/ha, 21 days, 0=no effect, 100=complete kill. The essentials:
as §3

The subject of assay [12] is Wild Oat (Avena fatua). As to the kind of experiment: Pre-emergence soil surface spray, wild oat. The note with it: soil surface spray 2.8 kg/ha, 21 days, 0=no effect, 100=complete kill. The essentials:
as §3

In assay [13] the test system is Blackgrass (Alopecurus myosuroides). As to the kind of experiment: Pre-emergence soil surface spray, blackgrass. The note with it: soil surface spray 2.8 kg/ha, 21 days, 0=no effect, 100=complete kill. In a few lines: as §3
For assay [14], the system named is Barnyardgrass (Echinochloa crus-galli). As to the kind of experiment: Pre-emergence soil surface spray, barnyardgrass. The note with it: soil surface spray 2.8 kg/ha, 21 days, 0=no effect, 100=complete kill. In a few lines:
as §3

Assay [15] has as its system Crabgrass (Digitaria sanguinalis). As to the kind of experiment: Pre-emergence soil surface spray, crabgrass. The note with it: soil surface spray 2.8 kg/ha, 21 days, 0=no effect, 100=complete kill. The essentials: as §3

With `CCCS(=O)(=O)N(c1c(C)cccc1C)C(C)C(=O)OCC` (stereo not drawn) [Example 24, N-(1-[ethoxycarbonyl]ethyl)-2',6'-dimethyl-1-propanesulphonanilide], the pest or weed control at 11200 g/ha in assay [1] was 20%. For the same compound, the results for the plant injury at 11200 g/ha in [2] and in assay [3] were 90% and 30%, respectively. Further, the “herbicidal or growth regulant response index” value in assay [4] was 100. Besides, the pest or weed control at 26 µg/mL was 0% in assay [5], 100% in [6] and 100% in [9]. For the same compound, the plant injury at 26 µg/mL in assay [7] and in assay [8] was 60% throughout. Besides, the “growth regulatory or herbicidal effect score” value came to 10 in [10]; 30 in assay [11]; 100 in [12]; 100 in assay [13]; 80 in assay [14]; 100 in assay [15].
